Reference: PubChem BioAssay (NCI)
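Five compound concentrations were applied to cells in 96-well plates for 48 hours; endpoints were derived by simple linear interpolation of the resulting dose-response curve. The concentration for 50% growth inhibition is given as GI50. TGI: concentration producing complete growth inhibition.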

Assays:
Test in all cases: growth of human tumour cells (NCI), 48 h
[1] = test system: OVCAR-5 ovarian
[2] = test system: 786-0 renal
[3] = test system: A498 renal
[4] = test system: A549 NSCLC
[5] = test system: ACHN renal
[6] = test system: BT-549 breast
[7] = test system: CCRF-CEM leukemia
[8] = test system: COLO 205 colon
[9] = test system: DU-145 prostate
[10] = test system: EKVX NSCLC
[11] = test system: HCC-2998 colon
[12] = test system: HCT-116 colon
[13] = test system: HCT-15 colon
[14] = test system: HOP-62 NSCLC
[15] = test system: HOP-92 NSCLC
[16] = test system: HS 578T breast
[17] = test system: HT29 colon
[18] = test system: IGROV1 ovarian
[19] = test system: K-562 leukemia
[20] = test system: KM12 colon
[21] = test system: LOX IMVI melanoma
[22] = test system: M14 melanoma
[23] = test system: MALME-3M melanoma
[24] = test system: MCF7 breast
[25] = test system: MDA-MB-231 breast
[26] = test system: MDA-MB-435
[27] = test system: NCI-H23 lung
[28] = test system: NCI-H460 lung
[29] = test system: NCI-H522 lung
[30] = test system: NCI/ADR-RES ovarian
[31] = test system: OVCAR-3 ovarian
[32] = test system: OVCAR-4 ovarian
[33] = test system: OVCAR-8 ovarian
[34] = test system: PC-3 prostate
[35] = test system: RPMI-8226 leukemia
[36] = test system: RXF 393 renal
[37] = test system: SF-268 CNS
[38] = test system: SF-295 CNS
[39] = test system: SF-539 CNS
[40] = test system: SK-MEL-2 melanoma
[41] = test system: SK-MEL-28 melanoma
[42] = test system: SK-MEL-5 melanoma
[43] = test system: SK-OV-3 ovarian
[44] = test system: SN12C renal
[45] = test system: SNB-19 CNS
[46] = test system: SNB-75 CNS
[47] = test system: SW-620 colon
[48] = test system: T-47D breast
[49] = test system: TK-10 renal
[50] = test system: U251 CNS
[51] = test system: UACC-257 melanoma
[52] = test system: UACC-62 melanoma
[53] = test system: UO-31 renal
[54] = test system: CAKI-1 renal
[55] = test system: MOLT-4 leukemia
[56] = test system: NCI-H226 lung

Q: Which GI50 [1] does the source give for `C#CC[C@@H]1C[C@]2(C)[C@H]3CC[C@@H]4[C@H]5C(C(=C)C)CC[C@]5(C(=O)NCCCN5CCN(CCCN)CC5)CC[C@@]4(C)[C@]3(C)CC[C@H]2C(C)(C)[C@H]1OC(C)=O` (stereo partly specified) here?
A: 1580 nM

Q: And the TGI [1]?
A: 2950 nM

Q: Which GI50 [2] does the source give for `Clc1c(Cl)[n+](Cc2ccc3ccccc3c2)cn1Cc1ccc2ccccc2c1` here?
A: 1650 nM

Q: And the TGI [2]?
A: 3110 nM

Q: And the GI50 [3]?
A: 1230 nM

Q: And the TGI [3]?
A: 2920 nM

Q: And the GI50 [4]?
A: 3320 nM

Q: What about the TGI [4] of the same molecule?
A: 11700 nM

Q: And the GI50 [5]?
A: 1920 nM

Q: What about the TGI [5] of the same molecule?
A: 3660 nM

Q: What about the GI50 [6] of the same molecule?
A: 1670 nM

Q: What about the TGI [6] of the same molecule?
A: 3090 nM

Q: What about the GI50 [7] of the same molecule?
A: 2890 nM

Q: And the TGI [7]?
A: 7060 nM

Q: And the GI50 [8]?
A: 1130 nM

Q: What about the TGI [8] of the same molecule?
A: 2570 nM

Q: And the GI50 [9]?
A: 1530 nM

Q: What about the TGI [9] of the same molecule?
A: 3010 nM

Q: And the GI50 [10]?
A: 1830 nM

Q: What about the TGI [10] of the same molecule?
A: 4980 nM

Q: What about the GI50 [11] of the same molecule?
A: 1530 nM

Q: What about the TGI [11] of the same molecule?
A: 3050 nM

Q: What about the GI50 [12] of the same molecule?
A: 1450 nM

Q: What about the TGI [12] of the same molecule?
A: 2870 nM

Q: What about the GI50 [13] of the same molecule?
A: 1820 nM

Q: And the TGI [13]?
A: 3620 nM

Q: And the GI50 [14]?
A: 1260 nM

Q: What about the TGI [14] of the same molecule?
A: 2610 nM

Q: What about the GI50 [15] of the same molecule?
A: 733 nM

Q: And the TGI [15]?
A: 2140 nM

Q: What about the GI50 [16] of the same molecule?
A: 1710 nM

Q: And the TGI [16]?
A: 4410 nM

Q: What about the GI50 [17] of the same molecule?
A: 570 nM

Q: What about the TGI [17] of the same molecule?
A: 2010 nM

Q: And the GI50 [18]?
A: 1330 nM

Q: What about the TGI [18] of the same molecule?
A: 2930 nM

Q: And the GI50 [19]?
A: 1710 nM

Q: And the TGI [19]?
A: 3730 nM

Q: And the GI50 [20]?
A: 1530 nM

Q: What about the TGI [20] of the same molecule?
A: 3050 nM

Q: And the GI50 [21]?
A: 1260 nM

Q: And the TGI [21]?
A: 2520 nM

Q: And the GI50 [22]?
A: 1210 nM

Q: And the TGI [22]?
A: 2800 nM

Q: And the GI50 [23]?
A: 1400 nM

Q: And the TGI [23]?
A: 3150 nM

Q: And the GI50 [24]?
A: 1320 nM

Q: What about the TGI [24] of the same molecule?
A: 2880 nM

Q: What about the GI50 [25] of the same molecule?
A: 1420 nM

Q: What about the TGI [25] of the same molecule?
A: 2930 nM

Q: What about the GI50 [26] of the same molecule?
A: 1240 nM

Q: What about the TGI [26] of the same molecule?
A: 2640 nM

Q: And the GI50 [27]?
A: 1350 nM

Q: And the TGI [27]?
A: 3150 nM

Q: And the GI50 [28]?
A: 1530 nM

Q: And the TGI [28]?
A: 2980 nM

Q: And the GI50 [29]?
A: 1120 nM

Q: And the TGI [29]?
A: 2670 nM

Q: And the GI50 [30]?
A: 16300 nM

Q: What about the TGI [30] of the same molecule?
A: 38000 nM

Q: What about the GI50 [31] of the same molecule?
A: 1340 nM

Q: And the TGI [31]?
A: 2690 nM

Q: What about the GI50 [32] of the same molecule?
A: 1360 nM

Q: What about the TGI [32] of the same molecule?
A: 3000 nM

Q: What about the GI50 [1] of the same molecule?
A: 1540 nM

Q: What about the TGI [1] of the same molecule?
A: 3320 nM

Q: What about the GI50 [33] of the same molecule?
A: 1650 nM

Q: What about the TGI [33] of the same molecule?
A: 3300 nM

Q: And the GI50 [34]?
A: 1460 nM

Q: And the TGI [34]?
A: 2870 nM

Q: What about the GI50 [35] of the same molecule?
A: 1250 nM

Q: And the TGI [35]?
A: 3550 nM

Q: What about the GI50 [36] of the same molecule?
A: 1630 nM

Q: And the TGI [36]?
A: 3100 nM

Q: What about the GI50 [37] of the same molecule?
A: 1220 nM

Q: What about the TGI [37] of the same molecule?
A: 2550 nM

Q: And the GI50 [38]?
A: 1400 nM

Q: What about the TGI [38] of the same molecule?
A: 2820 nM

Q: What about the GI50 [39] of the same molecule?
A: 1570 nM

Q: And the TGI [39]?
A: 2980 nM

Q: And the GI50 [40]?
A: 1670 nM

Q: And the TGI [40]?
A: 3240 nM

Q: What about the GI50 [41] of the same molecule?
A: 1630 nM

Q: What about the TGI [41] of the same molecule?
A: 3040 nM

Q: What about the GI50 [42] of the same molecule?
A: 1130 nM

Q: And the TGI [42]?
A: 2390 nM

Q: What about the GI50 [43] of the same molecule?
A: 1390 nM

Q: What about the TGI [43] of the same molecule?
A: 3750 nM

Q: And the GI50 [44]?
A: 1530 nM

Q: And the TGI [44]?
A: 2990 nM

Q: What about the GI50 [45] of the same molecule?
A: 1320 nM

Q: What about the TGI [45] of the same molecule?
A: 2700 nM

Q: And the GI50 [46]?
A: 836 nM

Q: What about the TGI [46] of the same molecule?
A: 2210 nM

Q: And the GI50 [47]?
A: 1470 nM

Q: What about the TGI [47] of the same molecule?
A: 3000 nM

Q: And the GI50 [48]?
A: 504 nM

Q: What about the TGI [48] of the same molecule?
A: 2090 nM

Q: What about the GI50 [49] of the same molecule?
A: 1580 nM

Q: And the TGI [49]?
A: 3110 nM

Q: What about the GI50 [50] of the same molecule?
A: 1530 nM

Q: And the TGI [50]?
A: 2940 nM

Q: And the GI50 [51]?
A: 1740 nM

Q: What about the TGI [51] of the same molecule?
A: 3510 nM

Q: And the GI50 [52]?
A: 1130 nM

Q: And the TGI [52]?
A: 2450 nM

Q: What about the GI50 [53] of the same molecule?
A: 1720 nM

Q: And the TGI [53]?
A: 4560 nM

Q: Which TGI [2] does the source give for `CC1=C(C#N)C(=C(C#N)C#N)OC1(C)Cc1ccccc1` (stereo unspecified) here?
A: > 100000 nM

Q: And the TGI [3]?
A: > 100000 nM

Q: What about the TGI [4] of the same molecule?
A: > 100000 nM

Q: What about the TGI [5] of the same molecule?
A: 32700 nM

Q: And the TGI [6]?
A: > 100000 nM

Q: What about the TGI [54] of the same molecule?
A: 50900 nM

Q: What about the TGI [8] of the same molecule?
A: 43000 nM

Q: And the TGI [9]?
A: > 100000 nM

Q: And the TGI [10]?
A: > 100000 nM

Q: And the TGI [11]?
A: 89600 nM

Q: And the TGI [12]?
A: > 100000 nM

Q: What about the TGI [13] of the same molecule?
A: 83000 nM

Q: What about the TGI [14] of the same molecule?
A: > 100000 nM

Q: What about the TGI [15] of the same molecule?
A: 38600 nM

Q: And the TGI [16]?
A: > 100000 nM

Q: What about the TGI [17] of the same molecule?
A: 78600 nM

Q: And the TGI [18]?
A: > 100000 nM

Q: And the TGI [19]?
A: > 100000 nM

Q: What about the TGI [20] of the same molecule?
A: > 100000 nM

Q: What about the TGI [21] of the same molecule?
A: 41000 nM

Q: And the TGI [22]?
A: > 100000 nM

Q: And the TGI [24]?
A: > 100000 nM

Q: And the TGI [25]?
A: > 100000 nM

Q: And the TGI [26]?
A: > 100000 nM

Q: And the TGI [55]?
A: 67300 nM

Q: What about the TGI [56] of the same molecule?
A: 59300 nM

Q: And the TGI [27]?
A: > 100000 nM

Q: And the TGI [29]?
A: 36800 nM

Q: And the TGI [30]?
A: > 100000 nM

Q: What about the TGI [31] of the same molecule?
A: 74900 nM

Q: And the TGI [32]?
A: 60300 nM

Q: And the TGI [1]?
A: > 100000 nM

Q: And the TGI [33]?
A: > 100000 nM

Q: And the TGI [34]?
A: > 100000 nM

Q: What about the TGI [35] of the same molecule?
A: 96800 nM

Q: What about the TGI [36] of the same molecule?
A: 37600 nM

Q: What about the TGI [37] of the same molecule?
A: > 100000 nM

Q: What about the TGI [38] of the same molecule?
A: > 100000 nM

Q: What about the TGI [39] of the same molecule?
A: > 100000 nM

Q: What about the TGI [40] of the same molecule?
A: > 100000 nM

Q: What about the TGI [41] of the same molecule?
A: > 100000 nM

Q: What about the TGI [42] of the same molecule?
A: > 100000 nM

Q: What about the TGI [43] of the same molecule?
A: > 100000 nM

Q: And the TGI [44]?
A: > 100000 nM

Q: What about the TGI [45] of the same molecule?
A: > 100000 nM

Q: And the TGI [46]?
A: > 100000 nM

Q: And the TGI [47]?
A: > 100000 nM

Q: What about the TGI [48] of the same molecule?
A: 85600 nM

Q: And the TGI [49]?
A: > 100000 nM

Q: And the TGI [50]?
A: > 100000 nM

Q: What about the TGI [51] of the same molecule?
A: > 100000 nM

Q: What about the TGI [52] of the same molecule?
A: 50400 nM

Q: And the TGI [53]?
A: 37000 nM
